Patent US8507505B2, “Dihydropyrazolopyrimidinone derivative” (MSD K.K., priority 2008, dated 2013)

Assays:
[1] = tested on: Cdc2 (Cdk1) tyrosine-15 phosphorylation in NCI-H1299 cells; assay: Inhibitory effect on Cdc2 (Cdk1) tyrosine-15 phosphorylation in cells (Pharmacological Test 2, NCI-H1299 method); assay type: cell-based; settings: Homo sapiens, 200 nM camptothecin 16 hours, then test compound with nocodazole 8 hours, ELISA ratio of tyrosine-15-phosphorylated Cdc2 to Cdc2, read-out: Cdc2-Tyrosine 15 Phosphorylation Inhibiting Effect
Text: Pharmacological Test 2 (Method for determining drug effect using cells (inhibitory effect on Cdc2 (Cdk1) tyrosine-15 phosphorylation))
Fetal bovine serum (FBS) was purchased from Morgate, Inc.; an RPMI-1640 medium and a DMEM medium were purchased from Invitrogen, Inc.; camptothecin was purchased from Sigma Co.; gemcitabine was purchased from Eli Lilly Japan K.K.; nocodazole and protease inhibitor cocktail were purchased from Sigma Co.; a rabbit anti-Cdc2 antibody and a mouse anti-Cdc2 antibody were purchased from Santa Cruz Biotechnology, Inc.; a rabbit anti-tyrosine-15-phosphorylated Cdc2 antibody and a horseradish peroxidase-labeled anti-mouse IgG antibody were purchased from Cell Signaling Technology, Inc.; and Sure Blue Reserve TMB peroxidase substrate was purchased from Kirkegaard & Perry Laboratories, Inc.
A human non-small cell lung cancer cell line (NCI-H1299) and a human colon cancer cell line (WiDr) can be obtained from American Type Culture Collection (ATCC).
In the method using NCI-H1299 cells, the cells were suspended in an RPMI-1640 medium supplemented with 10% FBS, and 100 μL of the resulting cell suspension was dispensed in a Nunclon Delta treated 96-well plastic plate purchased from Nunc, Inc. at a density of 2000 cells per well, and the plate was incubated overnight at 37° C. under an atmosphere of 5% CO2 and 95% air. Camptothecin was dissolved in dimethyl sulfoxide (DMSO) and further the resulting solution was diluted with an RPMI-1640 medium supplemented with 10% FBS. Then, 50 μL of the diluted solution was added to each well of the plate in which the cells were seeded in advance such that the final concentration of camptothecin was 200 nM, and the plate was incubated at 37° C. under an atmosphere of 5% CO2 and 95% air for 16 hours. A test compound was serially diluted with DMSO, and further diluted with an RPMI-1640 medium supplemented with 10% FBS containing 4000 nM nocodazole. Then, 50 μL of the test compound solution was added to each well of the plate in which the cells treated with camptothecin were seeded, and the plate was incubated at 37° C. under an atmosphere of 5% CO2 and 95% air for 8 hours. Then, the culture medium was removed from each well and […] of a cell lysis buffer was added to each well, and the plate was shaken at 4° C. for 2 hours, and thereafter the liquid in the plate was frozen at −80° C. and then thawed, which was used as a lysed cell solution. Cdc2 and tyrosine-15-phosphorylated Cdc2 in this lysed cell solution were measured by an enzyme-linked immunosorbent assay (ELISA method), and a ratio of tyrosine-15-phosphorylated Cdc2 to Cdc2 was calculated to determine a 50% effective concentration (EC50, nM) of the test compound for inhibition of phosphorylation in cells. The cell lysis buffer as used herein is an aqueous solution […] containing 20 mM HEPES (pH 7.5), 150 mM sodium chloride, 1 mM disodium ethylenediamine tetraacetate, 0.1% polyoxyethylene (10) octylphenyl ether, 1% protease inhibitor cocktail, 1 mM dithiothreitol, 2 mM sodium orthovanadate, 10 mM sodium fluoride and 10 mM glycerol diphosphate. The measurement of Cdc2 by the ELISA method was carried out as follows. 50 μL of a solution of a rabbit anti-Cdc2 antibody obtained by diluting the antibody to 200 times with 50 mM carbonate-bicarbonate buffer (pH 9.6) was dispensed into each well of a 96-well Maxisorb immunoplate purchased from Nunc, Inc., and the immunoplate was let stand overnight at 4° C. to immobilize the antibody thereto. Subsequently, each well was washed three times with phosphate buffered saline (PBS), and 300 μL of PBS containing 5% bovine serum albumin (5% BSA/PBS) was added to each well, and then, the immunoplate was let stand at room temperature for 2 hours. […]

Wee1 kinase = target: T1, Wee1 kinase (Homo sapiens, UniProt P30291); assay: Wee1 kinase inhibitory effect (Pharmacological Test 1); assay type: biochemical; settings: purified GST-tagged Wee1 kinase, Poly(Lys, Tyr) substrate, 10 μM ATP, 30° C. for 30 minutes; read-out: Weel Inhibition Activity (IC50)
T1 construct: made in house; host or cells: Sf9 insect cells (recombinant baculovirus)
T1 sequence (P30291 whole entry): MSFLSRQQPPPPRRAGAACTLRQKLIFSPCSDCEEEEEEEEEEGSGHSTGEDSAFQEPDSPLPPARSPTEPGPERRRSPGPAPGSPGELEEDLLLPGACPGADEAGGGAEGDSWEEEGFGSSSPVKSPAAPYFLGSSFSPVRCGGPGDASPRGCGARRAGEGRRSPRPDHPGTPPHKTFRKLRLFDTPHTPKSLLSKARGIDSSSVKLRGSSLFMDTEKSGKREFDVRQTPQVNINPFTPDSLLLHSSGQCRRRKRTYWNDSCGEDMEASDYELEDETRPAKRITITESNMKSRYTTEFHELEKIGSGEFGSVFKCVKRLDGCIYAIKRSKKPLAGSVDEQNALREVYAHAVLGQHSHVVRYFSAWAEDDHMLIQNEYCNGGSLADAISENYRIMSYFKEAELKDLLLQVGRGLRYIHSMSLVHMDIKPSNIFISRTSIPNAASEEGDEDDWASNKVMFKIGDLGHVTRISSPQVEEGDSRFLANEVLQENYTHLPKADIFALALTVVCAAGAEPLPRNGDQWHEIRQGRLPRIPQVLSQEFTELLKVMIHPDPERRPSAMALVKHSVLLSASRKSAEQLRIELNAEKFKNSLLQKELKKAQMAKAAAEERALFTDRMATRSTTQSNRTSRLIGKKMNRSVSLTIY
Text: The following describes exemplary pharmacological tests of a compound of the present invention._Pharmacological Test 1 (Wee1 kinase inhibitory effect)
A cDNA of Wee1 kinase with glutathione-S-transferase (GST) fused at the amino terminal thereof was inserted into a baculovirus expression vector to construct a recombinant baculovirus, with which cells of an insect cell line Sf9 were infected to overexpress the target protein. The infected cells were collected and lysed, and then the GST-tagged Wee1 kinase protein was adsorbed to a glutathione column and eluted from the column with glutathione, and the active fraction was desalted in a desalting column to give a purified enzyme.
In measurement of the Wee1 kinase activity, a synthetic peptide, Poly(Lys, Tyr) hydrobromide (Lys:Tyr (4:1)) purchased from Sigma was used as the substrate.
The amount of the reaction mixture was 21.1 μL; and the composition of the reaction buffer was 50 mM Tris-HCl buffer (pH 7.4)/10 mM magnesium chloride/1 mM dithiothreitol. The purified Wee1 kinase, 2.5 μg of the substrate peptide, 10 μM of non-labeled adenosine triphosphate (ATP) and 1 μCi of [γ-^33P]-labeled ATP (2500 Ci/mmol or more) were added to the reaction buffer, and the resulting mixture was incubated at 30° C. for 30 minutes. Thereafter, 10 μL of 350 mM phosphate buffer was added to the reaction system to stop the reaction. The substrate peptide was adsorbed on a P81 paper filter 96-well plate and the plate was washed several times with 130 mM phosphate buffer, and the radioactivity thereof was counted using a liquid scintillation counter. The [γ-^33P]-labeled ATP was purchased from Amersham Bioscience, Ltd.
The addition of a test compound to the reaction system was carried out by preparing a series of dilutions of the compound with dimethyl sulfoxide (DMSO) and adding 1.1 μL of each dilution to the reaction system. As a control, 1.1 μL of DMSO was added to the reaction system.

Work on `Cn1c(=O)n(-c2c(Cl)cccc2Cl)c(=N)c2cnc(Nc3ccc(N4CCOC(CO)C4)cc3)nc21` (stereo not shown) [Example 2, 3-(2,6-Dichlorophenyl)-7-({4-[2-(hydroxymethyl)morpholin-4-yl]phenyl}amino)-4-imino-1-methyl-3,4-dihydropyrimido[4,5-d]pyrimidin-2(1H)-one] yielded an EC50 [1] of 86 nM and an IC50 (Wee1 kinase) of 2 nM.
Work on `CN1CCN(c2ccc(Nc3ncc4c(=N)n(-c5c(Cl)cccc5Cl)c(=O)n(C)c4n3)cc2)CC1` [Example 7, 3-(2,6-Dichlorophenyl)-4-imino-1-methyl-7-{[4-(4-methylpiperazin-1-yl)phenyl]amino}-3,4-dihydropyrimido[4,5-d]pyrimidin-2(1H)-one] yielded an IC50 (Wee1 kinase) of 6 nM.
In the case of `CN(C)CC(=O)N1CCN(c2ccc(Nc3ncc4c(=N)n(-c5c(Cl)cccc5Cl)c(=O)n(C)c4n3)cc2)CC1` [Example 3, 3-(2,6-Dichlorophenyl)-7-[(4-{4-[(dimethylamino)acetyl]piperazin-1-yl}phenyl)amino]-4-imino-1-methyl-3,4-dihydropyrimido[4,5-d]pyrimidin-2(1H)-one], the EC50 [1] is reported as 45 nM and the IC50 (Wee1 kinase) is reported as 12 nM.
In the case of `CN1CCN(c2ccc(Nc3ncc4c(=N)n(-c5c(Cl)cccc5Cl)c(=O)[nH]c4n3)cc2)CC1` [Example 5, 3-(2,6-Dichlorophenyl)-4-imino-7-{[4-(4-methylpiperazin-1-yl)phenyl]amino}-3,4-dihydropyrimido[4,5-d]pyrimidin-2(1H)-one], the EC50 [1] is reported as 66 nM and the IC50 (Wee1 kinase) is reported as 17 nM.
Molecule `CN(C)[C@@H]1CCN(c2ccc(Nc3ncc4c(=N)n(-c5c(Cl)cccc5Cl)c(=O)[nH]c4n3)cc2)C1` [Example 8, 3-(2,6-Dichlorophenyl)-7-({4-[(3R)-3-dimethylaminopyrrolidin-1-yl]phenyl}amino)-4-imino-3,4-dihydropyrimido[4,5-d]pyrimidin-2(1H)-one] has an EC50 [1] of 75 nM and an IC50 (Wee1 kinase) of 17 nM.
Work on `CN1CCC2(CCCN(c3ccc(Nc4ncc5c(=N)n(-c6c(Cl)cccc6Cl)c(=O)[nH]c5n4)cc3)C2)C1` (stereo not shown) [Example 10, 3-(2,6-Dichlorophenyl)-4-imino-7-{[4-(2-methyl-2,7-diazaspiro[4,5]dec-7-yl)phenyl}amino)-3,4-dihydropyrimido[4,5-d]pyrimidin-2(1H)-one] yielded an EC50 [1] of 110 nM and an IC50 (Wee1 kinase) of 18 nM.
Work on `Cn1c(=O)n(-c2c(Cl)cccc2Cl)c(=N)c2cnc(Nc3ccc(N4CCN(CCO)CC4)cc3)nc21` [Example 1, 3-(2,6-Dichlorophenyl)-7-({4-[4-(2-hydroxyethyl)piperazin-1-yl]phenyl}amino)-4-imino-1-methyl-3,4-dihydropyrimido[4,5-d]pyrimidin-2(1H)-one] yielded an EC50 [1] of 71 nM and an IC50 (Wee1 kinase) of 4 nM.
`Cc1cc(Nc2ncc3c(=N)n(-c4c(Cl)cccc4Cl)c(=O)[nH]c3n2)ccc1N1CCN(C)CC1` [Example 6, 3-(2,6-Dichlorophenyl)-4-imino-7-{[3-methyl-4-(4-methylpiperazin-1-yl)phenyl]amino}-3,4-dihydropyrimido[4,5-d]pyrimidin-2(1H)-one] gave an EC50 [1] of 25 nM and an IC50 (Wee1 kinase) of 8 nM.
`CN1CC2CCN(c3ccc(Nc4ncc5c(=N)n(-c6c(Cl)cccc6Cl)c(=O)[nH]c5n4)cc3)C2C1` (stereo not shown) [Example 9, 3-(2,6-Dichlorophenyl)-4-imino-7-{[4-(5-methylhexahydropyrrolo[3,4-b]pyrrol-1(2H)-yl)phenyl}amino)-3,4-dihydropyrimido[4,5-d]pyrimidin-2(1H)-one] gave an EC50 [1] of 110 nM and an IC50 (Wee1 kinase) of 16 nM.
Molecule `CN(C)CC1CN(c2ccc(Nc3ncc4c(=N)n(-c5c(Cl)cccc5Cl)c(=O)n(C)c4n3)cc2)CCO1` (stereo not shown) [Example 4, 3-(2,6-Dichlorophenyl)-7-[(4-{2-[(dimethylamino)methyl]morpholin-4-yl}phenyl)amino]-4-imino-1-methyl-3,4-dihydropyrimido[4,5-d]pyrimidin-2(1H)-one] has an EC50 [1] of 34 nM and an IC50 (Wee1 kinase) of 10 nM.
